pEC50: −log10 of the molar value. Like-named read-outs stand apart in the source and are kept apart here.
Molecular target: T1, human GLP-1 receptor (Homo sapiens, UniProt P43220)
T1 construct: expressed in transfected cells
Assay: GLP-1R cAMP Assay
Assay type: cell-based
Summary of the method: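 CHO cells stably overexpressing human GLP-1R, 10,000 cells/well, treated with compound in 20-point dose response in triplicate for 30 min. cAMP accumulation read by enzyme-complementation luminescence after lysis and overnight incubation; dose-response curves fitted.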

[1] = cAMP accumulation in CHO cells stably overexpressing the human GLP-1 receptor, 30 min treatment, HitHunter cAMP kit, read-out: EC50

T1 sequence (P43220 24-463): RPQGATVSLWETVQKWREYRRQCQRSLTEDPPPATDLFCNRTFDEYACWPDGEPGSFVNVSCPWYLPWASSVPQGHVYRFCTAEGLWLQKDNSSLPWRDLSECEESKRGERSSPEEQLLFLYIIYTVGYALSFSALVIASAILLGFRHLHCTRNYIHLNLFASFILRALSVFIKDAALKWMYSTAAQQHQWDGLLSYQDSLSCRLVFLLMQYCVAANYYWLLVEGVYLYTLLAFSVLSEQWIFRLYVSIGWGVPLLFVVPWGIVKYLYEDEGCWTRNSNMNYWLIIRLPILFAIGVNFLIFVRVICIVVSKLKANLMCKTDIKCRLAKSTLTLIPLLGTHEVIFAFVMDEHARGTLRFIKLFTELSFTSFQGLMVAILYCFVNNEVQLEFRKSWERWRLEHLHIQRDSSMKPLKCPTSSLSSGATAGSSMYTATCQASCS

Row | SMILES | pEC50 [1] | pEC50
1 | Cc1cc(C(=O)O)cc2c1nc(CN1CCC(Oc3ccnc(COc4ccc(C#N)cc4F)c3)CC1)n2C[C@@H]1CCO1 [Compound 499, 2-{[4-({2-[(4-cyano-2-fluorophenoxy)methyl]pyridin-4-yl}oxy)piperidin-1-yl]methyl}-4-methyl-1-{[(2S)-oxetan-2-yl]methyl}-1H-1,3-benzodiazole-6-carboxylic acid] | > 7.30 | –
2 | O=C(O)c1ccc2nc(CN3CCC(Oc4cc(COc5ccc(Cl)cc5F)ncc4F)CC3)n(C[C@@H]3CCO3)c2c1 [Compound 380, (S)-2-((4-((2-((4-chloro-2-fluorophenoxy)methyl)-5-fluoropyridin-4-yl)oxy)piperidin-1-yl)methyl)-1-(oxetan-2-ylmethyl)-1H-benzo[d]imidazole-6-carboxylic acid] | > 7.30 | –
3 | O=C(O)c1ccc2nc(CN3CCC(Oc4ccnc(COc5ccc(F)cc5C(F)(F)F)c4)CC3)n(C[C@@H]3CCO3)c2c1 [Compound 322] | > 7.30 | –
4 | O=C(O)c1ccc2nc(CN3CCC(Cc4cccc(COc5ccc(C6CC6)cc5Cl)n4)CC3)n(C[C@@H]3CCO3)c2c1 [Example 152, (S)-2-((4-((6-((2-Chloro-4-cyclopropylphenoxy)methyl)pyridin-2-yl)methyl)piperidin-1-yl)methyl)-1-(oxetan-2-ylmethyl)-1H-benzo[d]imidazole-6-carboxylic acid] | > 7.30 | –
5 | N#Cc1ccc(OCc2nccc(O[C@@H]3C[C@H]4CC[C@@H](C3)N4Cc3nc4ccc(C(=O)O)cc4n3C[C@@H]3CCO3)n2)c(F)c1 [Compound 487, 2-{[(1R,3S,5S)-3-({2-[(4-cyano-2-fluorophenoxy)methyl]pyrimidin-4-yl}oxy)-8-azabicyclo[3.2.1]octan-8-yl]methyl}-1-{[(2S)-oxetan-2-yl]methyl}-1H-1,3-benzodiazole-6-carboxylic acid] | 6.30 to 7.30 | –
6 | CCn1cncc1Cn1c(CN2CCN(C(=O)c3cccc(CN(C)c4ccc(C)cc4Cl)c3)CC2)nc2ccc(C(=O)O)cc21 [Compound 77, 2-{[4-(3-{[(2-chloro-4-methylphenyl)(methyl)amino]methyl}benzoyl)piperazin-1-yl]methyl}-1-[(1-ethyl-1H-imidazol-5-yl)methyl]-1H-1,3-benzodiazole-6-carboxylic acid] | < 6.30 | –
7 | CCn1cncc1Cn1c(CN2CCC(Cc3cccc(COc4ccc(F)cc4C#N)c3)CC2)nc2ccc(C(=O)O)cc21 [Compound 188, 2-{[4-({3-[(2-cyano-4-fluorophenoxy)methyl]phenyl}methyl)piperidin-1-yl]methyl}-1-[(1-ethyl-1H-imidazol-5-yl)methyl]-1H-1,3-benzodiazole-6-carboxylic acid] | > 7.30 | –
8 | CCn1cncc1Cn1c(CN2CCC(Oc3cccc(COc4ccc(Cl)cc4Cl)n3)CC2)nc2ccc(C(=O)O)cc21 [Compound 199, 2-{[4-({6-[(2,4-dichlorophenoxy)methyl]pyridin-2-yl}oxy)piperidin-1-yl]methyl}-1-[(1-ethyl-1H-imidazol-5-yl)methyl]-1H-1,3-benzodiazole-6-carboxylic acid] | > 7.30 | –
9 | CCn1cncc1Cn1c(CN2CCN(Cc3ccc(COc4ccc(Cl)cc4Cl)o3)CC2)nc2ccc(C(=O)O)cc21 [Compound 63, 2-{[4-({5-[(2,4-dichlorophenoxy)methyl]furan-2-yl}methyl)piperazin-1-yl]methyl}-1-[(1-ethyl-1H-imidazol-5-yl)methyl]-1H-1,3-benzodiazole-6-carboxylic acid] | > 7.30 | –
10 | O=C(c1ccc(-c2nnn[nH]2)nc1)N1CCN(Cc2ccc(COc3ccc(Cl)cc3Cl)o2)CC1 [Compound 97, 1-({5-[(2,4-dichlorophenoxy)methyl]furan-2-yl}methyl)-4-[6-(1H-1,2,3,4-tetrazol-5-yl)pyridine-3-carbonyl]piperazine] | < 6.30 | –
11 | CCn1cncc1Cn1c(CN2CCN(C(=O)c3cccc(COc4ccc(C#N)cc4F)c3)CC2)nc2ccc(C(=O)O)cc21 [Compound 69, 2-[(4-{3-[(4-cyano-2-fluorophenoxy)methyl]benzoyl}piperazin-1-yl)methyl]-1-[(1-ethyl-1H-imidazol-5-yl)methyl]-1H-1,3-benzodiazole-6-carboxylic acid] | < 6.30 | –
12 | Cc1ccc(OCc2ccc(C(=O)N3CCN(Cc4nc5ccc(C(=O)O)cc5n4C[C@@H]4CCO4)CC3)o2)cc1 [Compound 42, 2-[(4-{5-[(4-methylphenoxy)methyl]furan-2-carbonyl}piperazin-1-yl)methyl]-1-{[(2S)-oxetan-2-yl]methyl}-1H-1,3-benzodiazole-6-carboxylic acid] | < 6.30 | –
13 | CCn1cncc1Cn1c(CN2CCC(Oc3cccc(COc4ccc(Cl)cc4C#N)n3)CC2)nc2ccc(C(=O)O)cc21 [Compound 246, 2-{[4-({6-[(4-chloro-2-cyanophenoxy)methyl]pyridin-2-yl}oxy)piperidin-1-yl]methyl}-1-[(1-ethyl-1H-imidazol-5-yl)methyl]-1H-1,3-benzodiazole-6-carboxylic acid] | > 7.30 | –
14 | O=C(O)c1ccc2nc(CN3CCC(Oc4ccnc(COc5ccc(F)cc5Cl)n4)CC3)n(C[C@@H]3CCO3)c2n1 [Compound 370] | > 7.30 | –
15 | N#Cc1ccc(OCc2cc(OC3CCN(Cc4nc5c(F)cc(C(=O)O)cc5n4C[C@@H]4CCO4)CC3)ccn2)c(Cl)c1 [Compound 359] | > 7.30 | –
16 | N#Cc1cc(Cl)ccc1OCc1cccc(OC2CCN(Cc3nc4ccc(C(=O)O)cc4n3Cc3ncco3)CC2)c1 [Compound 232, 2-[(4-{3-[(4-chloro-2-cyanophenoxy)methyl]phenoxy}piperidin-1-yl)methyl]-1-[(1,3-oxazol-2-yl)methyl]-1H-1,3-benzodiazole-6-carboxylic acid] | > 7.30 | –
17 | Cc1ccc(N(C)c2cccc(C(=O)N3CCN(Cc4nc5ccc(C(=O)O)cc5n4C[C@@H]4CCO4)CC3)c2)cc1 [Compound 29, 2-[(4-{3-[methyl(4-methylphenyl)amino]benzoyl}piperazin-1-yl)methyl]-1-{[(2S)-oxetan-2-yl]methyl}-1H-1,3-benzodiazole-6-carboxylic acid] | 6.30 to 7.30 | –
18 | CCn1cncc1Cn1c(CN2CCC(Cc3cc(F)cc(COc4ccc(Cl)cc4Cl)c3)CC2)nc2ccc(C(=O)O)cc21 [Compound 133, 2-{[4-({3-[(2,4-dichlorophenoxy)methyl]-5-fluorophenyl}methyl)piperidin-1-yl]methyl}-1-[(1-ethyl-1H-imidazol-5-yl)methyl]-1H-1,3-benzodiazole-6-carboxylic acid] | > 7.30 | –
19 | O=C(O)c1cc(F)c2nc(CN3CCC(Oc4ccnc(COc5ccc(F)cc5F)c4)CC3)n(C[C@@H]3CCO3)c2c1 [Compound 496, 2-{[4-({2-[(2,4-difluorophenoxy)methyl]pyridin-4-yl}oxy)piperidin-1-yl]methyl}-4-fluoro-1-{[(2S)-oxetan-2-yl]methyl}-1H-1,3-benzodiazole-6-carboxylic acid] | > 7.30 | –
20 | C[C@H]1C[C@@H](Oc2ccnc(COc3ccc(C#N)cc3F)c2)CCN1Cc1nc2ccc(C(=O)O)cc2n1C[C@@H]1CCO1 [Compound 363] | – | > 7.30
21 | O=C(O)c1ccc2nc(CN3CCN(C(=O)c4cccc(Oc5cc(Cl)ccc5F)c4)CC3)n(C[C@@H]3CCO3)c2c1 [Compound 12, 2-({4-[3-(5-chloro-2-fluorophenoxy)benzoyl]piperazin-1-yl}methyl)-1-{[(2S)-oxetan-2-yl]methyl}-1H-1,3-benzodiazole-6-carboxylic acid] | < 6.30 | –
22 | O=C(O)c1ccc2nc(CN3CCN(C(=O)c4ncc(COc5ccc(Cl)cc5Cl)o4)CC3)n(C[C@@H]3CCO3)c2c1 [Compound 113, 2-[(4-{5-[(2,4-dichlorophenoxy)methyl]-1,3-oxazole-2-carbonyl}piperazin-1-yl)methyl]-1-{[(2S)-oxetan-2-yl]methyl}-1H-1,3-benzodiazole-6-carboxylic acid] | < 6.30 | –
23 | N#Cc1ccc(OCc2nccc(OC3CCN(Cc4nc5ncc(C(=O)O)cc5n4C[C@@H]4CCO4)CC3)n2)c(F)c1 [Example 486, (S)-2-((4-((2-((4-Cyano-2-fluorophenoxy)methyl)pyrimidin-4-yl)oxy)piperidin-1-yl)methyl)-1-(oxetan-2-ylmethyl)-1H-imidazo[4,5-b]pyridine-6-carboxylic acid] | > 7.30 | –
24 | CCn1cncc1Cn1c(CN2CCC(Oc3ccnc(COc4ccc(C#N)cc4F)c3)CC2)nc2ccc(C(=O)O)cc21 [Compound 275, 2-{[4-({2-[(4-cyano-2-fluorophenoxy)methyl]pyridin-4-yl}oxy)piperidin-1-yl]methyl}-1-[(1-ethyl-1H-imidazol-5-yl)methyl]-1H-1,3-benzodiazole-6-carboxylic acid] | > 7.30 | –
25 | CCn1cncc1Cn1c(CN2CCC(Oc3cnc(COc4ccc(Cl)cc4Cl)o3)CC2)nc2ccc(C(=O)O)cc21 [Compound 214, 2-{[4-({2-[(2,4-dichlorophenoxy)methyl]-1,3-oxazol-5-yl}oxy)piperidin-1-yl]methyl}-1-[(1-ethyl-1H-imidazol-5-yl)methyl]-1H-1,3-benzodiazole-6-carboxylic acid] | > 7.30 | –
26 | O=C(O)c1ccc2nc(CN3CCC(Oc4ccnc(COc5ccc(Cl)cc5CF)c4)CC3)n(C[C@@H]3CCO3)c2c1 [Example 299, (S)-2-((4-((2-((4-Chloro-2-(fluoromethyl)phenoxy)methyl)pyridin-4-yl)oxy)piperidin-1-yl)methyl)-1-(oxetan-2-ylmethyl)-1H-benzo[d]imidazole-6-carboxylic acid] | > 7.30 | –
27 | CCn1cncc1Cn1c(CN2CCN(C(=O)c3cccc(COc4ccc(C)cc4Cl)c3)CC2)nc2ccc(C(=O)O)cc21 [Compound 65, 2-[(4-{3-[(2-chloro-4-methylphenoxy)methyl]benzoyl}piperazin-1-yl)methyl]-1-[(1-ethyl-1H-imidazol-5-yl)methyl]-1H-1,3-benzodiazole-6-carboxylic acid] | 6.30 to 7.30 | –
28 | CCn1cncc1Cn1c(CN2CCC(Oc3ccnc(COc4ccc(C#N)cc4F)n3)CC2)nc2ccc(C(=O)O)cc21 [Example 261, 2-((4-((2-((4-Cyano-2-fluorophenoxy)methyl)pyrimidin-4-yl)oxy)piperidin-1-yl)methyl)-1-((1-ethyl-1H-imidazol-5-yl)methyl)-1H-benzo[d]imidazole-6-carboxylic acid] | > 7.30 | –
